In patent US11578055B2, “Triazacyclododecansulfonamide (“TCD”)-based protein secretion inhibitors” (KEZAR LIFE SCIENCES, priority 2018, dated 2023):
Where two headings read alike, the source gives them in different places.

Experiments:
[1] = test system: full length IL-2 (amino acids 1-153) fused to Gaussia Luciferase; experiment: Dox Induced IL2-FL-Gluc Assay; format: cell-based; conditions: 24 hr, Dox inducible, 293FRT/TO cells; read-out: 24 hr Dox Inducible IL2FLGluc 293FRT/TO: Mean IC50
In short: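 Flp-In 293 T-REx stable line expressing full-length IL-2 (aa 1-153) with C-terminal Gaussia luciferase fusion under doxycycline-inducible control. Cells plated the day before; compound dilutions added in DMSO/media containing doxycycline, incubated at 37° C, 5% CO2.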

[2] = In Vitro Microsome Stability Assay (rat); format: in vitro ADME; conditions: rat liver microsomes, 30 min w/ NADPH
In short: (§1)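 Test article, added from a 0.25 mM DMSO stock, was incubated with liver microsomes (20 mg/mL stock) in 0.1 M potassium phosphate at 37° C, with the reaction started by NADPH. Samples were quenched with acetonitrile containing internal standard at 0 and 30 min and analysed by LC-MS/MS. Values are % remaining at 30 min versus 0 min, using IS-normalised AUC ratios.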

[3] = In Vitro Microsome Stability Assay (human); format: in vitro ADME; conditions: human liver microsomes, 30 min w/ NADPH
In short: as §1

[4] = test system: target signal sequences plus 10 amino acids fused to Gaussia Luciferase; experiment: Transiently Expressed Dox Induced Signal Sequence-Gluc Assay; format: cell-based; conditions: read-out: Signal Sequence-Gluc potency
Description: FIp-In 293 T-REx™ cells were transfected with 500 ng pcDNA™5/FRT/TO plasmids inserted with cDNA encoding Gaussia Luciferase fused to the 3′ end of cDNA encoding target signal sequences plus 10 amino acids. Transfected cells were incubated overnight then cells were trypsinized and plated in 384-well tissue culture plates. The next day, compound dilutions in DMSO/media containing doxycycline were added to the wells and incubated at 37° C., 5% CO2.

IFNγ = experiment: Human PBMC Cytokine Assay: IFNγ; format: cell-based; conditions: anti-CD3/CD28 stimulation, 24 hours
Description: (§2) Human PBMC were freshly isolated from whole blood collections of 3 normal donors utilizing density gradient centrifugation followed by red blood cell lysis. PBMC from each donor were assayed separately. Cells were suspended in RPMI 1640 media supplemented with 5% fetal bovine serum, 2 mM L-glutamine, 10 mM HEPES, and 1× penicillin/streptomycin. PBMC were seeded at 200,000 cells/well in 96-well round-bottom plates either without stimulation or with stimulation by lipopolysaccharide (LPS, 1 μg/mL) or antibodies against human CD3 (plate-bound, 2 μg/mL) and human CD28 (soluble, 2 μg/mL). Serial dilutions of compound in DMSO/media were simultaneously added and PBMC were incubated at 37° C., 5% CO2 for 24 hours. After 24 hours, plates were centrifuged and half of the supernatant volume removed for cytokine analysis by electrochemiluminescent immunoassay (U-PLEX® Biomarker Multiplex, Meso Scale Discovery). For viability analysis, CellTiter-Glo® (Promega) was added to the remaining material in each well and quantified via luminescent plate reader.

[5] = test system: multiple myeloma cell line U266B1; experiment: U266 Cell Viability Assay; format: cell-based, human; conditions: Homo sapiens, U-266; 48 hr, U266, Celltiter-Glo
In short: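 U266B1 myeloma cells in RPMI 1640 with 10% FBS were treated with compound dilutions for 48 h at 37° C, 5% CO2. Viability was read as CellTiter-Glo luminescence. Data for structures drawn without stereochemistry refer to stereoisomer mixtures.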

IL-2 = experiment: Human PBMC Cytokine Assay: IL-2; format: cell-based; conditions: anti-CD3/CD28 stimulation, 24 hours
Description: as §2

## COc1cc(F)ccc1N1CCN(S(=O)(=O)N2CCCN(CC3CCCCC3)CCCN(S(=O)(=O)c3ccc(N(C)C)cc3)C[C@H](C)C2)CC1 [A137]
[1]
  IC50: 21.4 nM
[2]
  Liver Microsome Stability-% Left after 30 min w/ NADPH (%) Rat: 31.6%
[3]
  Liver Microsome Stability-% Left after 30 min w/ NADPH (%) Human: 48.8%
[4]; Target ADAM10 signal peptide +10 amino acids
  IC50: 127 nM
[4]; Target B7H3 signal peptide +10 amino acids
  IC50: 9 nM
[4]; Target CD73 signal peptide +10 amino acids
  IC50: 44 nM
[4]; Target CD96 signal peptide +10 amino acids
  IC50: 7 nM
[4]; Target CTLA-4 signal peptide +10 amino acids
  IC50: 112 nM
[4]; Target EGFR signal peptide +10 amino acids
  IC50: 47 nM
[4]; Target GP130 signal peptide +10 amino acids
  IC50: 161 nM
[4]; Target HER3 signal peptide +10 amino acids
  IC50: 57 nM
[4]; Target IFN-a1 signal peptide +10 amino acids
  IC50: 57 nM
[4]; Target IFN-a2 signal peptide +10 amino acids
  IC50: 44 nM
[4]; Target IFN-a4 signal peptide +10 amino acids
  IC50: 89 nM
[4]; Target IFN-b signal peptide +10 amino acids
  IC50: 288 nM
[4]; Target IFNAR1 signal peptide +10 amino acids
  IC50: 6 nM
[4]; Target IFNAR2 signal peptide +10 amino acids
  IC50: 42 nM
[4]; Target IL-1R1 signal peptide +10 amino acids
  IC50: 282 nM
[4]; Target IL-1R2 signal peptide +10 amino acids
  IC50: 17 nM
[4]; Target IL-1Ra (isoform 1) signal peptide +10 amino acids
  IC50: 47 nM
[4]; Target IL-2Ra (CD25) signal peptide +10 amino acids
  IC50: 55 nM
[4]; Target IL-6R signal peptide +10 amino acids
  IC50: 48 nM
[4]; Target IL-6 signal peptide +10 amino acids
  IC50: 38 nM
[4]; Target IL-7R signal peptide +10 amino acids
  IC50: 16 nM
[4]; Target IL-12b (p40) signal peptide +10 amino acids
  IC50: 74 nM
[4]; Target IL-17Ra signal peptide +10 amino acids
  IC50: 176 nM
[4]; Target IL-17a signal peptide +10 amino acids
  IC50: 216 nM
[4]; Target IL-23R signal peptide +10 amino acids
  IC50: 47 nM
[4]; Target IL-23a signal peptide +10 amino acids
  IC50: 223 nM
[4]; Target LAG3 signal peptide +10 amino acids
  IC50: 48 nM
[4]; Target PD-L1 signal peptide +10 amino acids
  IC50: 19 nM
[4]; Target PDGFRa signal peptide +10 amino acids
  IC50: 37 nM
[4]; Target TACE (ADAM17) signal peptide +10 amino acids
  IC50: 40 nM
[4]; Target TIGIT signal peptide +10 amino acids
  IC50: 79 nM
[4]; Target TIM3 signal peptide +10 amino acids
  IC50: 132 nM
[4]; Target TNFR1 signal peptide +10 amino acids
  IC50: 152 nM
[4]; Target TNFR2 signal peptide +10 amino acids
  IC50: 186 nM
[4]; Target VEGF signal peptide +10 amino acids
  IC50: 51 nM
[4]; Target VGFR2 signal peptide +10 amino acids
  IC50: 213 nM
[4]; Target VISTA signal peptide +10 amino acids
  IC50: 150 nM
IFNγ
  IC50: 21 nM
[5]
  EC50: > 25000 nM
IL-2
  IC50: 8 nM
